Assay results from ChEMBL document CHEMBL5096192, “Recent advancements in anti-leishmanial research: Synthetic strategies and structural activity relationships” (Eur J Med Chem, 2021).

Columns and labels:
Leishmania amazonensis [1] = assay: Antileishmanial activity against Leishmania amazonensis MHOM/BR/79/Maria intracellular amastigotes infected in mouse J774 macrophages assessed as inhibition of parasite growth incubated for 48 hrs by fluorometric analysis; type: functional, organism-based; settings: J774, 48 h
Leishmania infantum [2] = assay: Antileishmanial activity against promastigote form of Leishmania infantum MCAN/ES/92/BCN83 assessed as inhibition of parasite growth measured after 48 hrs by resazurin staining based fluorescence analysis; type: functional, organism-based; settings: MCAN/ES/92/BCN83, 48 h
Leishmania infantum [3] = assay: Antileishmanial activity against Leishmania infantum MCAN/ES/92/BCN83 intracellular amastigotes infected in mouse J774 macrophages assessed as inhibition of parasite growth incubated for 48 hrs by fluorometric analysis; type: functional, organism-based; settings: MCAN/ES/92/BCN83, J774, 48 h
Leishmania amazonensis [4] = assay: Antileishmanial activity against promastigote form of Leishmania amazonensis MHOM/BR/79/Maria assessed as inhibition of parasite growth measured after 48 hrs by resazurin staining based fluorescence analysis; type: functional, organism-based
[5] = target: Trypanothione reductase (Leishmania donovani) (UniProt P39050); assay: Inhibition of Leishmania donovani trypanothione reductase expressed in Escherichia coli BL21(DE3) using TS2 and NADPH as substrate at 100 uM preincubated for 5 mins followed by substrate addition by DTNB-reagent based spectrophotometric method
Trypanothione reductase (Leishmania donovani), sequence (P39050 whole entry): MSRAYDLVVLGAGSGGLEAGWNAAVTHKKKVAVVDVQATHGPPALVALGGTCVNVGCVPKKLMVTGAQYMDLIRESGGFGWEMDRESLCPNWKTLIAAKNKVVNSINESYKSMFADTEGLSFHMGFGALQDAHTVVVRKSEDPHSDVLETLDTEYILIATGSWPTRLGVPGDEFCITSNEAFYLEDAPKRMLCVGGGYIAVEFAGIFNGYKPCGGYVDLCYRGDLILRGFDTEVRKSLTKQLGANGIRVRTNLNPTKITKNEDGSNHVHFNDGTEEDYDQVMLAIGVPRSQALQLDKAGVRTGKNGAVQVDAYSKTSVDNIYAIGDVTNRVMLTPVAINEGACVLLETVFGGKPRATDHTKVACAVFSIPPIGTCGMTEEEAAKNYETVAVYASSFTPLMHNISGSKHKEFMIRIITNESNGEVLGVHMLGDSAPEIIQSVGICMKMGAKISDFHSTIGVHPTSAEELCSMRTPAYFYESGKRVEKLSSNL

Leishmania donovani = assay: Antileishmanial activity against Leishmania donovani MHOM/IN/80/Dd8 intracellular amastigotes transfected with firefly luciferase gene infected in mouse J774.A1 cells assessed as parasite growth inhibition incubated for 96 hrs by Steady Glo reagent based luminescence assay; type: functional, organism-based; settings: MHOM/IN/80/Dd8, J774.A1, 96 h

inhibition [5] | SMILES | IC50 (Leishmania amazonensis [1]) | IC50 (Leishmania infantum [2]) | IC50 (Leishmania infantum [3]) | IC50 (Leishmania amazonensis [4]) | IC50 (Leishmania donovani)
– | FC(F)(F)c1nc2cc(Cl)c(Cl)cc2[nH]1 | 9 µM | 8.63 µM | 15.8 µM | 4.11 µM | –
87% | CCOC(=O)c1cc2c([nH]c3ccccc32)c(C(C(=O)NC(C)(C)C)N(Cc2ccc(CC)cc2)C(=O)c2ccccc2)n1 (stereo unspecified) | – | – | – | – | 2.43 µM
